What was measured:
Format in all cases: biochemical
TrkA = target: T1, TrkA (Homo sapiens, UniProt P04629); experiment: HTRF KinEASE kinase assay, recombinant Human TRK enzyme, TrkA (NTRK1); conditions: NTRK1 4 nM, read-out: TrkA Enz
T1 construct: purchased Invitrogen
Description: (§1) A suitable assay for determining the Trk inhibition activity of a compound is detailed herein below.
(§2) To determine the IC50 of small molecule compounds for the Human TRK receptors, HTRF® KinEASE™ kinase kits from Cisbio were used. Assays were carried out in low volume, black 384-well plates.
(§3) Recombinant Human TRK enzymes (Invitrogen) were incubated in the presence or absence of the compound (11-point dose response with FAC as 10 μM) for 30 minutes at 23° C. Kinase reaction was started by addition of ATP to a mixture containing the enzyme (NTRK1-4 nM, NTRK2-1 nM, NTRK3-10 nM) and substrate (1 μM). Kinase reaction was allowed to carry on for 10 to 45 minutes at 23° C. after which it was stopped by addition of the detection mix (supplied by vendor) containing EDTA, TK-Ab-labelled with Eu^3+-cryptate (1:200 dilutions) and Streptavidin-XL665 (250 nM). Assay plates were incubated in this detection mix for 60 minutes at 23° C. The resulting TR-FRET signal, calculated as the fluorescence ratio at 665/620 nm, was read on an Envision and was proportional to the level of phosphorylation of the peptide in the presence or absence of the compound. The uniformity of the plates were assured with Z′ value [1−{3*(SDHPE+SDZPE)/(ZPE−HPE)}]. The percent (%) effect i.e. Inhibition of compound was calculated in comparison to the signal in the positive (HPE) and negative control (ZPE) wells within each assay plate. The endpoint value % Inhibition for the Standard compound was evaluated in each experiment as a quality control measure. IC50 was determined by plotting compound inhibition at respective dose in Graphpad prism5 using four parameter logistic curve fit.

TrkB = target: T2, TrkB (Homo sapiens, UniProt Q16620); experiment: HTRF KinEASE kinase assay, recombinant Human TRK enzyme, TrkB (NTRK2); conditions: NTRK2 1 nM, read-out: TrkB Enz
T2 construct: purchased Invitrogen
T2 sequence (Q16620 32-822): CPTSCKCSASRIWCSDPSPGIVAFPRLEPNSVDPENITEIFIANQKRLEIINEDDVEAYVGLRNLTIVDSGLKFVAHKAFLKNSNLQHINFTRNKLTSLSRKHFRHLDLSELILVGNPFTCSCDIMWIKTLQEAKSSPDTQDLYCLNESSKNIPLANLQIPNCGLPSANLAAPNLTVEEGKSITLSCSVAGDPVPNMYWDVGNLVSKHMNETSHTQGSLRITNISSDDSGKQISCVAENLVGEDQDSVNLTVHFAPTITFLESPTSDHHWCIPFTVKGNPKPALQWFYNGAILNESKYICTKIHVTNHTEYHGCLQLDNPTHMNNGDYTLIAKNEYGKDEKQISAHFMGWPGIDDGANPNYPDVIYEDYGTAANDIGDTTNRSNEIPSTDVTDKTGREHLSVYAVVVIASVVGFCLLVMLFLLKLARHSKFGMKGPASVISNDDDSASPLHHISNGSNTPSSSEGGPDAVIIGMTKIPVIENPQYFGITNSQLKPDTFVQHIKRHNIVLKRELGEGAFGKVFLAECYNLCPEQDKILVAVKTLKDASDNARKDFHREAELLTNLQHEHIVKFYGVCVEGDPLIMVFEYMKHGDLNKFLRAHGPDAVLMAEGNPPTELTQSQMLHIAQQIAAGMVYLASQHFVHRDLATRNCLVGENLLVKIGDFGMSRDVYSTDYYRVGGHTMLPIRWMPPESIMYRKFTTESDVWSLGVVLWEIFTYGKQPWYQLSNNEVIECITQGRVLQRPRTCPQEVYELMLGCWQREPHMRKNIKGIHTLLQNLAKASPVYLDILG
Description: as §1, §2, §3

TrkC = target: T3, TrkC (Homo sapiens, UniProt Q16288); experiment: HTRF KinEASE kinase assay, recombinant Human TRK enzyme, TrkC (NTRK3); conditions: NTRK3 10 nM, read-out: TrkC Enz
T3 construct: purchased Invitrogen
T3 sequence (Q16288 32-839): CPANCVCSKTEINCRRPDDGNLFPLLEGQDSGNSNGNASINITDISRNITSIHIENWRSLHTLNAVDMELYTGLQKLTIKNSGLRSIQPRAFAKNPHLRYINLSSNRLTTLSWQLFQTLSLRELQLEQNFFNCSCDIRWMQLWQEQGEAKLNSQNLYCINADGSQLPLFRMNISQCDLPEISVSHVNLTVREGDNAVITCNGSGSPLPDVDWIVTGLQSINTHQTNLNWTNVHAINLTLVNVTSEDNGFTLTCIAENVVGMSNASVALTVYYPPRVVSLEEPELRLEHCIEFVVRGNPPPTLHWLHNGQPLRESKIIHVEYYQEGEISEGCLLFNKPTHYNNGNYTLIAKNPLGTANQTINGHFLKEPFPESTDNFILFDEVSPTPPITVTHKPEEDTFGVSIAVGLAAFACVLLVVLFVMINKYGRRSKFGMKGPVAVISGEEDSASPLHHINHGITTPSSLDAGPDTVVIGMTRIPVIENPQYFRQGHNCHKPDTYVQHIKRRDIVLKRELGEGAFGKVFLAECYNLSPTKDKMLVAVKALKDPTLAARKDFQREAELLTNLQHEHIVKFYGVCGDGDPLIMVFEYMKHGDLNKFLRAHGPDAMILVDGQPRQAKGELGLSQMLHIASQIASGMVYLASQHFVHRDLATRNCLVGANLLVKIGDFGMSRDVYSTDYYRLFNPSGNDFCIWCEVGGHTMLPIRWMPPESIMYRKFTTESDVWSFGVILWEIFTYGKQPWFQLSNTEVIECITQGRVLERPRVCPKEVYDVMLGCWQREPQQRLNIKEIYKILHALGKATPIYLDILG
Description: as §1, §2, §3

T1 sequence (P04629 33-796): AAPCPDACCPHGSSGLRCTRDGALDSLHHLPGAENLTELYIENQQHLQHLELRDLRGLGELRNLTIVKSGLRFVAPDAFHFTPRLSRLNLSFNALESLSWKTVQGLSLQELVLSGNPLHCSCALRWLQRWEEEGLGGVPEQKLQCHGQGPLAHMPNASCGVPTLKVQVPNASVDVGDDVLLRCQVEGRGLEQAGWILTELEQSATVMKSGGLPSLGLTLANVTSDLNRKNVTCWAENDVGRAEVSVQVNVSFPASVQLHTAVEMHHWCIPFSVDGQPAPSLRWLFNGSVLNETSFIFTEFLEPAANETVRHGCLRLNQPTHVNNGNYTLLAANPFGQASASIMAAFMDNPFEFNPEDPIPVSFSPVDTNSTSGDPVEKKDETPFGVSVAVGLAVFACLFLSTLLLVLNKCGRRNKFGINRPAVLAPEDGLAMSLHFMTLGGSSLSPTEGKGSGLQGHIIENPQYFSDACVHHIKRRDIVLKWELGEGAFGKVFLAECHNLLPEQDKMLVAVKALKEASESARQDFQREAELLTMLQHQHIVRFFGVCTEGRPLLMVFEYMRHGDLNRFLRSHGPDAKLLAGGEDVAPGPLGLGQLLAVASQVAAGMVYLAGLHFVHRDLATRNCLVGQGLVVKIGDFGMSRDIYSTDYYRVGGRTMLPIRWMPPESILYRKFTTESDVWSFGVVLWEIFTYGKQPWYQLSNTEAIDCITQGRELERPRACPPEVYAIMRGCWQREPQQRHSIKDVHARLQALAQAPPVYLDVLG

Compound	IC50 (TrkA) [nM]	IC50 (TrkB) [nM]	IC50 (TrkC) [nM]
CSc1cc(F)cc([C@H]2C[C@H](F)CN2c2ccc3ncc(C(=O)NC4CN(Cc5cccc(O)c5)C4)n3n2)c1 [Example 20, 6-[(2R,4S)-4-fluoro-2-[3-fluoro-5-(methylsulfanyl)phenyl]pyrrolidin-1-yl]-N-{1-[(3-hydroxyphenyl)methyl]azetidin-3-yl}imidazo[1,2-b]pyridazine-3-carboxamide]	2.69	3.76	3.72
CSc1cc(F)cc([C@H]2C[C@H](F)CN2c2ccc3ncc(C(=O)N[C@H]4CCN(C(=O)c5cccc(O)c5)C4)n3n2)c1 [Example 27, 6-[(2R,4S)-4-fluoro-2-[3-fluoro-5-(methylsulfanyl)phenyl]pyrrolidin-1-yl]-N-[(3S)-1-(3-hydroxybenzoyl)pyrrolidin-3-yl]imidazo[1,2-b]pyridazine-3-carboxamide]	1.34	1.01	1.87
CSc1cc(F)cc([C@H]2C[C@H](F)CN2c2ccc3ncc(C(=O)N[C@H]4CCN(Cc5cccc(OC(C)=O)c5)C4)n3n2)c1 [Example 28, 3-{[(3S)-3-{6-[(2R,4S)-4-fluoro-2-[3-fluoro-5-(methylsulfanyl)phenyl]pyrrolidin-1-yl]imidazo[1,2-b]pyridazine-3-amido}pyrrolidin-1-yl]methyl}phenyl Acetate]	4.63	5.67	4.88
CCCCOC(=O)c1cccc(CN2CC[C@H](NC(=O)c3cnc4ccc(N5C[C@@H](F)C[C@@H]5c5cc(F)cc(SC)c5)nn34)C2)c1 [Example 30, Butyl 3-{[(3S)-3-{6-[(2R,4S)-4-fluoro-2-[3-fluoro-5-(methylsulfanyl)phenyl]pyrrolidin-1-yl]imidazo[1,2-b]pyridazine-3-amido}pyrrolidin-1-yl]methyl}benzoate]	22.4	14.9	22.4
CSc1cc(F)cc([C@H]2C[C@H](F)CN2c2ccn3ncc(C(=O)NC4CCN(Cc5cccc(O)c5)CC4)c3n2)c1 [Example 31, 5-[(2R,4S)-4-fluoro-2-[3-fluoro-5-(methylsulfanyl)phenyl]pyrrolidin-1-yl]-N-{1-[(3-hydroxyphenyl)methyl]piperidin-4-yl}pyrazolo[1,5-a]pyrimidine-3-carboxamide]	1.38	0.86	1.38

Other lines, results leading:

IC50 (TrkA) [nM]	IC50 (TrkB) [nM]	IC50 (TrkC) [nM]	Compound
2.46	3.04	2.99	CSc1cc(F)cc([C@H]2C[C@H](F)CN2c2ccc3ncc(C(=O)NC4CN(Cc5ccc(F)c(O)c5)C4)n3n2)c1 [Example 19, 6-[(2R,4S)-4-fluoro-2-[3-fluoro-5-(methylsulfanyl)phenyl]pyrrolidin-1-yl]-N-{1-[(4-fluoro-3-hydroxyphenyl)methyl]azetidin-3-yl}imidazo[1,2-b]pyridazine-3-carboxamide]
1.48	1.5	1.97	CSc1cc(F)cc([C@H]2C[C@H](F)CN2c2ccc3ncc(C(=O)NC4CCN(Cc5ccc(F)c(O)c5)CC4)n3n2)c1 [Example 21, 6-[(2R,4S)-4-fluoro-2-[3-fluoro-5-(methylsulfanyl)phenyl]pyrrolidin-1-yl]-N-{1-[(4-fluoro-3-hydroxyphenyl)methyl]piperidin-4-yl}imidazo[1,2-b]pyridazine-3-carboxamide]
1.4	2.01	2.13	CSc1cc(F)cc([C@H]2C[C@H](F)CN2c2ccc3ncc(C(=O)NC4CCN(Cc5cccc(O)c5)CC4)n3n2)c1 [Example 22, 6-[(2R,4S)-4-fluoro-2-[3-fluoro-5-(methylsulfanyl)phenyl]pyrrolidin-1-yl]-N-{1-[(3-hydroxyphenyl)methyl]piperidin-4-yl}imidazo[1,2-b]pyridazine-3-carboxamide]
2.37	10.3	6.85	CO[C@H]1CN(Cc2ccc(F)c(O)c2)C[C@@H]1NC(=O)c1cnc2ccc(N3C[C@@H](F)C[C@@H]3c3cc(F)cc(SC)c3)nn12 [Example 23, 6-[(2R,4S)-4-fluoro-2-[3-fluoro-5-(methylsulfanyl)phenyl]pyrrolidin-1-yl]-N-[(3S,4S)-1-[(4-fluoro-3-hydroxyphenyl)methyl]-4-methoxypyrrolidin-3-yl]imidazo[1,2-b]pyridazine-3-carboxamide]
1.87	1.85	2.97	CSc1cc(F)cc([C@H]2C[C@H](F)CN2c2ccc3ncc(C(=O)NCc4ccc(F)c(O)c4)n3n2)c1 [Example 26, 6-[(2R,4S)-4-fluoro-2-[3-fluoro-5-(methylsulfanyl)phenyl]pyrrolidin-1-yl]-N-[(4-fluoro-3-hydroxyphenyl)methyl]imidazo[1,2-b]pyridazine-3-carboxamide]
5.84	5.34	3.98	CSc1cc(F)cc([C@H]2C[C@H](F)CN2c2ccc3ncc(C(=O)N[C@H]4CCN(Cc5cccc(C(=O)O)c5)C4)n3n2)c1 [Example 29, 3-{[(3S)-3-{6-[(2R,4S)-4-fluoro-2-[3-fluoro-5-(methylsulfanyl)phenyl]pyrrolidin-1-yl]imidazo[1,2-b]pyridazine-3-amido}pyrrolidin-1-yl]methyl}benzoic Acid]
